Assay [1] deals with NCI-N87. The assay can be described thus: cells. The class given is functional, cell-based. Particulars: Homo sapiens, NCI-N87, 72 h.
Description: Antiproliferative activity against human NCI-N87 cells overexpressing HER2 assessed as cell growth inhibition measured after 72 hrs by MTT assay
The test system of assay [2] is NCI-H1975. The assay can be described thus: cells. Particulars: Homo sapiens, NCI-H1975, 72 h. It counts as functional, cell-based.
Description: Antiproliferative activity against human NCI-H1975 cells harboring EGFR L858R/T790M mutant assessed as cell growth inhibition measured after 72 hrs by MTT assay
For assay [3], the system named is A-431. The assay can be described thus: cells. The class given is functional, cell-based. The settings on record: Homo sapiens, A-431, 72 h.
Description: Antiproliferative activity against human A431 cells overexpressing EGFR assessed as cell growth inhibition measured after 72 hrs by MTT assay
Assay [4] relates to BT-474. Nature of the assay: cells. The class given is functional, cell-based. The settings on record: Homo sapiens, BT-474, 72 h.
Description: Antiproliferative activity against human BT474 cells overexpressing HER2 assessed as cell growth inhibition measured after 72 hrs by MTT assay
Assay [5] concerns the target T1, Epidermal growth factor receptor (Homo sapiens, UniProt P00533). It counts as cell-based, KB.
Description: Inhibition of EGFR in human KB cells assessed as reduction in EGF-stimulated EGFR phosphorylation preincubated for 1 hr followed by EGF stimulation and measured after 6 mins by ELISA
Assay [6] relates to Calu-3. Nature of the assay: cells. It counts as functional, cell-based. The settings on record: Homo sapiens, Calu-3, 72 h.
Description: Antiproliferative activity against human Calu3 cells overexpressing HER2 assessed as cell growth inhibition measured after 72 hrs by MTT assay
The target in assay [7] is T1, Epidermal growth factor receptor.
Description: Inhibition of EGFR (unknown origin) using FAM-labeled peptide as substrate preincubated for 10 mins followed by substrate addition measured after 40 mins in presence of ATP by caliper mobility shift assay
Assay [8] deals with T2, Receptor tyrosine-protein kinase erbB-2 (Homo sapiens, UniProt P04626). The assay can be described thus: Inhibition of HER2 (unknown origin) using FAM-labeled peptide as substrate preincubated for 10 mins followed by substrate addition measured after 40 mins in presence of ATP by caliper mobility shift assay.
T2 sequence (P04626 whole entry): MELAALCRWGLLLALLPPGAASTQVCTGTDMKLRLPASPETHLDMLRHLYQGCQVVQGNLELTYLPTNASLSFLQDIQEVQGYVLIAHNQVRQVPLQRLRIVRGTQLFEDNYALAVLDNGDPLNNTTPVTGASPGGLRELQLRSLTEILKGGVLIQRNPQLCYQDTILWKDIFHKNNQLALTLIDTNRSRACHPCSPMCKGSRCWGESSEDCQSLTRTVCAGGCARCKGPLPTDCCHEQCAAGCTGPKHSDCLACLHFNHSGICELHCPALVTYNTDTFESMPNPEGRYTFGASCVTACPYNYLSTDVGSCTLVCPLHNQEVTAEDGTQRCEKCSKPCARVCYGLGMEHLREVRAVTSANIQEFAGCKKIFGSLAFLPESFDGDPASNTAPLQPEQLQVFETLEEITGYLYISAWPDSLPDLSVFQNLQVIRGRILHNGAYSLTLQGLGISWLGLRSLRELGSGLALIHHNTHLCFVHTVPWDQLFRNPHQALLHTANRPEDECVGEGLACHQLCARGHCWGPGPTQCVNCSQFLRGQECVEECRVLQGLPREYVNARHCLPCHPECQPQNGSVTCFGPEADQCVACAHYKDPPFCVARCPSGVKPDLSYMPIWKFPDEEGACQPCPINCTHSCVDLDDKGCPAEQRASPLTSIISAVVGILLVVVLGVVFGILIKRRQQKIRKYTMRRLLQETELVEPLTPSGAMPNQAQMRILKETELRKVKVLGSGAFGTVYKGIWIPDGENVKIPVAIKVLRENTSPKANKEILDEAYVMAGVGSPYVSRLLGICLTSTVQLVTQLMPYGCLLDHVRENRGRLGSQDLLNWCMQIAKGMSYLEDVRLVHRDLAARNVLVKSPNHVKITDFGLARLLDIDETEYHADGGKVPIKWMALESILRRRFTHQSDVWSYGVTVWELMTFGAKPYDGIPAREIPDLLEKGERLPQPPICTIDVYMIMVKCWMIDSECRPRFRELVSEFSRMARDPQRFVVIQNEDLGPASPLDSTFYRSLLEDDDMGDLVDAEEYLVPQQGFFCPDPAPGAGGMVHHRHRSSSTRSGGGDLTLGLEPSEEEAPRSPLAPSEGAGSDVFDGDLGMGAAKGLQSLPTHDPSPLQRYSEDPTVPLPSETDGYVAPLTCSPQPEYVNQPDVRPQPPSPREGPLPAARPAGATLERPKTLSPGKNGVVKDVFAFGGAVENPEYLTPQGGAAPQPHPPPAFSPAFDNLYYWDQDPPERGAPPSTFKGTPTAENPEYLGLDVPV
Assay [9] concerns NCI-H1975. Nature of the assay: Potency index, ratio of lapatinib IC50 to test compound IC50 for antiproliferative activity against human NCI-H1975 cells harboring EGFR L858R/T790M mutant assessed as cell growth inhibition measured after 72 hrs by MTT assay. The class given is functional. Background: Tetrazolium assays rely on reduction of a dye to a coloured formazan, in cell work by metabolically active cells.

For assay [10], the system named is NCI-H1975. The assay can be described thus: Potency index, ratio of gefitinib IC50 to test compound IC50 for antiproliferative activity against human NCI-H1975 cells harboring EGFR L858R/T790M mutant assessed as cell growth inhibition measured after 72 hrs by MTT assay. It counts as functional.
Assay [11] concerns NCI-H1975. The assay can be described thus: Potency index, ratio of erlotinib IC50 to test compound IC50 for antiproliferative activity against human NCI-H1975 cells harboring EGFR L858R/T790M mutant assessed as cell growth inhibition measured after 72 hrs by MTT assay. It counts as functional.
Assay [12] addresses T1, Epidermal growth factor receptor. The assay can be described thus: Potency index, ratio of lapatinib IC50 to test compound IC50 for inhibition of EGFR (unknown origin) using FAM-labeled peptide as substrate preincubated for 10 mins followed by substrate addition measured after 40 mins in presence of ATP by caliper mobility shift assay.
In assay [13] the target is T2, Receptor tyrosine-protein kinase erbB-2. The assay can be described thus: Potency index, ratio of gefitinib IC50 to test compound IC50 for inhibition of HER2 (unknown origin) using FAM-labeled peptide as substrate preincubated for 10 mins followed by substrate addition measured after 40 mins in presence of ATP by caliper mobility shift assay.
For assay [14] the target is unchanged. Nature of the assay: Potency index, ratio of erlotinib IC50 to test compound IC50 for inhibition of HER2 (unknown origin) using FAM-labeled peptide as substrate preincubated for 10 mins followed by substrate addition measured after 40 mins in presence of ATP by caliper mobility shift assay.
Assay [15] shares this target. Nature of the assay: Potency index, ratio of lapatinib IC50 to test compound IC50 for inhibition of HER2 (unknown origin) using FAM-labeled peptide as substrate preincubated for 10 mins followed by substrate addition measured after 40 mins in presence of ATP by caliper mobility shift assay.

pIC50: −log10 of the molar value.

One may read the pIC50 as the IC50 on a negative log10 scale, so that one unit is a factor of ten.

T1 sequence (P00533 whole entry): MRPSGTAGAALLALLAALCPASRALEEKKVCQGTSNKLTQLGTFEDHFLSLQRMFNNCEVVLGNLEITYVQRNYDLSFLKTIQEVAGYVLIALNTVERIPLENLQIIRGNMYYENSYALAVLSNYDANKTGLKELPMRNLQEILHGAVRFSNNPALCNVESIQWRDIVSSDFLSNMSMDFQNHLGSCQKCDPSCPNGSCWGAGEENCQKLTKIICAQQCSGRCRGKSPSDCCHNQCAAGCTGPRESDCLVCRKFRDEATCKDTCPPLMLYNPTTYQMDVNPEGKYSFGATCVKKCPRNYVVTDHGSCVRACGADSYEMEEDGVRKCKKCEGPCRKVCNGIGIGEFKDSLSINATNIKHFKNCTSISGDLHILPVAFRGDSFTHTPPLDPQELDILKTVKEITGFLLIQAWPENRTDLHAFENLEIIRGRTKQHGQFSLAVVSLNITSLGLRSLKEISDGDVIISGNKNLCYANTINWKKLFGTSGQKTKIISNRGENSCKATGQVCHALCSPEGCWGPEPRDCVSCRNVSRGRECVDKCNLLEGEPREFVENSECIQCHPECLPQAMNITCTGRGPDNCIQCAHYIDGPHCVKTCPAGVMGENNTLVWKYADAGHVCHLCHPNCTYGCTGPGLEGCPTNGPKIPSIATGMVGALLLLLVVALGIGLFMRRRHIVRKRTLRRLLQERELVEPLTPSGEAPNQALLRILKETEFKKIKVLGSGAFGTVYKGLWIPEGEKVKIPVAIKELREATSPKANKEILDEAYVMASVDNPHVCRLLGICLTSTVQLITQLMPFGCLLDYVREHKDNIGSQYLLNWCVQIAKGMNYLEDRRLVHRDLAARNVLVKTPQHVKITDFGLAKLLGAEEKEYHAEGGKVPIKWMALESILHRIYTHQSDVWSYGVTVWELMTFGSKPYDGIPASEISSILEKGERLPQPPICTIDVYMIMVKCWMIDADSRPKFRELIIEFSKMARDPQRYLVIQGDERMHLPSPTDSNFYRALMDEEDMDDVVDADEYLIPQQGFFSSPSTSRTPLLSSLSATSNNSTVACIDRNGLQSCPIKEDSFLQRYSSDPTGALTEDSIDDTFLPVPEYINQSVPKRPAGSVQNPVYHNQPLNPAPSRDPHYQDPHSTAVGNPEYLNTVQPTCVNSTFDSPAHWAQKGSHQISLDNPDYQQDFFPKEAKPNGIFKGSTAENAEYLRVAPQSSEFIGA

As to `O=C(/C=C/Cn1ccnc1)N1CCOc2cc3ncnc(Nc4ccc(OCc5cccc(F)c5)c(Cl)c4)c3cc21`, the pIC50 was 7.64 in assay [1]; 5.70 in assay [2]; 5.60 in [3]; 7.32 in assay [4]; 6.92 in [5].

On to `CCN(CC)C/C=C/C(=O)N1CCOc2cc3ncnc(Nc4ccc(OCc5cccc(F)c5)c(Cl)c4)c3cc21`, for which the pIC50 in assay [1] is 7.43; in assay [2], 5.83; in assay [3], 6.21; in [4], 7.24; in [6], 6.56; in assay [5], 6.79. Also, the pIC50 in [7] is 8.10; in [8] it was 8.40. The “Ratio IC50” value in [9] is 4 - 8; in assay [10], 4 - 8; in assay [11] it was 4 - 8; in [12], 3 to 4; in assay [13], 70; in assay [14] it was 92. In assay [15], the Ratio IC50 is 3 to 4.

In the case of `CS(=O)(=O)CCNCc1ccc(-c2ccc3ncnc(Nc4ccc(OCc5cccc(F)c5)c(Cl)c4)c3c2)o1` [LAPATINIB], the pIC50 in assay [1] was 7.28; in [2], 5.13; in assay [3], 5.44; in [4], 7.43; in [6] it was 6.67.

As for `CC1CCCCN1C/C=C/C(=O)N1CCOc2cc3ncnc(Nc4ccc(OCc5cccc(F)c5)c(Cl)c4)c3cc21` (stereo not drawn), the pIC50 in assay [1] was 6.99; in assay [2], 5.64; in [3], 6.35; in assay [4], 6.90; in assay [5], 6.75.

For `C#Cc1cccc(Nc2ncnc3cc(OCCOC)c(OCCOC)cc23)c1` [ERLOTINIB], the pIC50 in [1] and in [4] was less than 5.00 each time.

Consider `CN(C)C/C=C/C(=O)N1CCCOc2cc3ncnc(Nc4ccc(OCc5cccc(F)c5)c(Cl)c4)c3cc21`, for which the pIC50 is 7.13 in assay [1]; less than 5.00 in [2]; 5.62 in [3]; 6.90 in [4]; less than 5.00 in assay [6]; 6.35 in [5].

With `CCN(CC)C/C=C/C(=O)N1CCCOc2cc3ncnc(Nc4ccc(OCc5cccc(F)c5)c(Cl)c4)c3cc21`, the pIC50 in [1] was less than 5.00; in assay [2], 5.83; in [3], less than 5.00; in assay [4] it was 6.94; in [6], less than 5.00; in [5], 7.10.

As to `CN1CCN(C/C=C/C(=O)N2CCOc3cc4ncnc(Nc5ccc(OCc6cccc(F)c6)c(Cl)c5)c4cc32)CC1`, the pIC50 in assay [1] was 7.74; in assay [2], 5.64; in assay [3], 6.75; in assay [4], 7.60; in assay [6] it was 6.85; in assay [5], 7.35. In addition, the pIC50 was 8.22 in assay [7] and 7.92 in [8]. In addition, the Ratio IC50 in assay [12] is 3.7.

For the molecule `O=C(/C=C/CN1CCCC1)N1CCCOc2cc3ncnc(Nc4ccc(OCc5cccc(F)c5)c(Cl)c4)c3cc21`, the pIC50 in assay [1] was 6.96; in [2] it was less than 5.00; in [3], 6.10; in assay [4] it was 6.76; in assay [6], less than 5.00; in [5], 6.24.

In the case of `CC1CCN(C/C=C/C(=O)N2CCOc3cc4ncnc(Nc5ccc(OCc6cccc(F)c6)c(Cl)c5)c4cc32)CC1`, the pIC50 in assay [1] is 6.78; in assay [2], 5.91; in assay [3], 5.95; in assay [4], 6.70.

Regarding `CC1CCN(C/C=C/C(=O)N2CCCOc3cc4ncnc(Nc5ccc(OCc6cccc(F)c6)c(Cl)c5)c4cc32)CC1`, the pIC50 in [1] was 6.08; in [2], less than 5.00; in [3], 5.68; in assay [4], 6.00; in assay [6], less than 5.00; in assay [5], 5.31.

Take `CN(C)C/C=C/C(=O)N1CCOc2cc3ncnc(Nc4ccc(OCc5cccc(F)c5)c(Cl)c4)c3cc21`: the pIC50 in assay [1] is 7.92; in [2] it was 5.60; in assay [3] it was 6.59; in assay [4] it was 7.68; in [5], 6.90.

On to `O=C(/C=C/CN1CCCCC1)N1CCOc2cc3ncnc(Nc4ccc(OCc5cccc(F)c5)c(Cl)c4)c3cc21`, for which the pIC50 in assay [1] is 7.14; in assay [2] it was 5.75; in assay [3], 6.10; in assay [4] it was 6.93; in assay [5], 6.94.

On to `CC1CCCCN1C/C=C/C(=O)N1CCCOc2cc3ncnc(Nc4ccc(OCc5cccc(F)c5)c(Cl)c4)c3cc21` (stereo not drawn), for which the negative-log IC50 (pIC50) in [1] was 6.30; in assay [2], less than 5.00; in [3], less than 5.00; in assay [4], 6.00; in assay [6], less than 5.00; in assay [5], 5.23.

In the case of `CN1CCN(C/C=C/C(=O)N2CCCOc3cc4ncnc(Nc5ccc(OCc6cccc(F)c6)c(Cl)c5)c4cc32)CC1`, the pIC50 is 5.74 in assay [1]; less than 5.00 in [2]; 5.07 in assay [3]; 5.77 in assay [4]; less than 5.00 in [6]; 5.31 in [5].

As for `O=C(/C=C/CN1CCCCC1)N1CCCOc2cc3ncnc(Nc4ccc(OCc5cccc(F)c5)c(Cl)c4)c3cc21`, the pIC50 was less than 5.00 in assay [1]; 5.78 in assay [2]; less than 5.00 in assay [3]; less than 5.00 in assay [4]; less than 5.00 in assay [6]; 6.07 in assay [5].

Turning to `O=C(/C=C/CN1CCOCC1)N1CCCOc2cc3ncnc(Nc4ccc(OCc5cccc(F)c5)c(Cl)c4)c3cc21`, the pIC50 in assay [1], in assay [2], in [3], in [4], in [6] and in assay [5] was less than 5.00 each time.

Take `O=C(/C=C/CN1CCCC1)N1CCOc2cc3ncnc(Nc4ccc(OCc5cccc(F)c5)c(Cl)c4)c3cc21`: the pIC50 was 7.32 in assay [1]; 5.78 in assay [2]; 6.20 in assay [3]; 7.22 in assay [4]; 6.75 in assay [6]; 6.92 in assay [5]. Also, the values for the pIC50 in [7] and in [8] were 8.15 and 8.40, respectively. The “Ratio IC50” value was 4 - 8 in assay [9]; 4 - 8 in assay [10]; 4 - 8 in [11]; 3 to 4 in [12]; 70 in assay [13]; 92 in assay [14]. Besides, the Ratio IC50 in assay [15] is 3 to 4.

The record behind these values is ChEMBL document CHEMBL4627322, “Design and synthesis of a novel class EGFR/HER2 dual inhibitors containing tricyclic oxazine fused quinazolines scaffold” (Bioorg Med Chem Lett, 2020).
